The structures appear in SMILES notation.

One may read the IC50 as the point on the concentration scale where inhibition reaches its midpoint.

The test has as its target T1, BRD4 Bromo Domain 1 [BRD4(1)] (Homo sapiens, UniProt O60885).
T1 construct: N-terminally His6-tagged BRD4(1) (amino acids 67-152); made in house; host or cells: E. coli
The test can be described thus: BRD4(1)/acetylated peptide H4 binding assay (TR-FRET). The following applies: inhibition of interaction between His6-tagged BRD4(1) (amino acids 67-152) and acetylated histone H4 peptide. A digest of the protocol:
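His6-BRD4(1) (aa 67-152, E. coli), 10 nM final, with biotinylated tetra-acetylated H4 peptide in HEPES pH 7.5 buffer; 11 compound concentrations 0.1 nM-20 μM in duplicate, 10 min preincubation, then 1 h at 22 °C and ≥3 h at 4 °C. TR-FRET 665/620 ratio; IC50 by 4-parameter fit.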
With `COc1cc(C(=O)NC2CCN(C)CC2)ccc1Nc1ccc2c(c1)N(C1CCOCC1)[C@H](C)C(=O)N2C` [Example 36, 4-{[(3R)-1,3-dimethyl-2-oxo-4-(tetrahydro-2H-pyran-4-yl)-1,2,3,4-tetrahydroquinoxalin-6-yl]amino}-3-methoxy-N-(1-methylpiperidin-4-yl)benzamide], the IC50 was determined as 482 nM.
`COc1cc(C(=O)NC2CCC(N3CCN(CC4CC4)CC3)CC2)ccc1Nc1ccc2c(c1)N(C1CCOCC1)[C@H](C)C(=O)N2C` (stereo partly drawn) [Example 37, N-{4-[4-(cyclopropylmethyl)piperazin-1-yl]cyclohexyl}-4-{[(3R)-1,3-dimethyl-2-oxo-4-(tetrahydro-2H-pyran-4-yl)-1,2,3,4-tetrahydroquinoxalin-6-yl]amino}-3-methoxybenzamide] displayed an IC50 of 422 nM.
Then `COc1cc(C(=O)N2CCN(C)CC2)ccc1Nc1ccc2c(c1)N(C1CCOCC1)[C@H](C)C(=O)N2C` [Example 38, (3R)-6-({2-methoxy-4-[(4-methylpiperazin-1-yl)carbonyl]phenyl}amino)-1,3-dimethyl-4-(tetrahydro-2H-pyran-4-yl)-3,4-dihydroquinoxalin-2(1H)-one], with 272 nM; and `COc1ccc(CN2c3cc(Nc4ccc(S(=O)(=O)N(C)C)cc4)ccc3N(C)C(=O)[C@H]2C)cc1` [Example 41, 4-{[(3R)-4-(4-methoxybenzyl)-1,3-dimethyl-2-oxo-1,2,3,4-tetrahydroquinoxalin-6-yl]amino}-N,N-dimethylbenzenesulphonamide], with 183 nM; and `COc1ccc(CN2c3cc(Nc4ccc(S(=O)(=O)N5CCOCC5)cc4)ccc3N(C)C(=O)[C@H]2C)cc1` [Example 42, (3R)-4-(4-methoxybenzyl)-1,3-dimethyl-6-{[4-(morpholin-4-ylsulphonyl)phenyl]amino}-3,4-dihydroquinoxalin-2(1H)-one], with 120 nM.
As to `COc1ccc(CN2c3cc(Nc4ccc(S(=O)(=O)N5CCN(C)CC5)cc4)ccc3N(C)C(=O)[C@H]2C)cc1` [Example 43, (3R)-4-(4-methoxybenzyl)-1,3-dimethyl-6-({4-[(4-methylpiperazin-1-yl)sulphonyl]phenyl}amino)-3,4-dihydroquinoxalin-2(1H)-one], the 50% inhibitory concentration (IC50) was found to be 103 nM.
Molecule `COc1ccc(CN2c3cc(Nc4ccc(S(=O)(=O)N5CCN(C(C)C)CC5)cc4)ccc3N(C)C(=O)[C@H]2C)cc1` [Example 44, (3R)-4-(4-methoxybenzyl)-1,3-dimethyl-6-[(4-{[4-(propan-2-yl)piperazin-1-yl]sulphonyl}phenyl)amino]-3,4-dihydroquinoxalin-2(1H)-one] had an IC50 of 55 nM.
`C[C@@H]1C(=O)N(C)c2ccc(Nc3ccc(S(=O)(=O)N(C)C)cc3)cc2N1C1CCCCCC1` [Example 45, 4-{[(3R)-4-cycloheptyl-1,3-dimethyl-2-oxo-1,2,3,4-tetrahydroquinoxalin-6-yl]amino}-N,N-dimethylbenzenesulphonamide]: the concentration for half-maximal inhibition (IC50) is 264 nM.
On to `C[C@@H]1C(=O)N(C)c2ccc(Nc3ccc(S(=O)(=O)N(C)C)cc3)cc2N1C1CCOCC1` [Example 46, 4-{[(3R)-1,3-dimethyl-2-oxo-4-(tetrahydro-2H-pyran-4-yl)-1,2,3,4-tetrahydroquinoxalin-6-yl]amino}-N,N-dimethylbenzenesulphonamide], for which the IC50 turned out to be 145 nM.
For the molecule `C[C@@H]1C(=O)N(C)c2ccc(Nc3ccc(S(=O)(=O)N4CCOCC4)cc3)cc2N1C1CCOCC1` [Example 47, (3R)-1,3-dimethyl-6-{[4-(morpholin-4-ylsulphonyl)phenyl]amino}-4-(tetrahydro-2H-pyran-4-yl)-3,4-dihydroquinoxalin-2(1H)-one], the IC50 came out at 95 nM.
On to `C[C@@H]1C(=O)N(C)c2ccc(Nc3ccc(S(=O)(=O)N4CCN(C)CC4)cc3)cc2N1C1CCOCC1` [Example 48, (3R)-1,3-dimethyl-6-({4-[(4-methylpiperazin-1-yl)sulphonyl]phenyl}amino)-4-(tetrahydro-2H-pyran-4-yl)-3,4-dihydroquinoxalin-2(1H)-one], for which the IC50 stood at 237 nM.
